The values that follow come from patent US5061723A, “Non-teratogenic vitamin A preparation for women of child-bearing age” (Iowa State University Research Foundation, Inc., priority 1989, dated 1991).

Series [1] concerns HL-60 cells. The conditions noted are these: cited from earlier work; for activity in the HL-60 systems assay: compared with retinoic acid and retinol.
In series [2] the test system is pregnant rats (fetuses). The series can be described thus: Teratogenicity test in pregnant rats (single oral dose on day 8.5 of gestation; fetuses examined day 19-19.5). It is filed as in vivo, rat. Here is the method:
All-trans retinoic acid glucuronide was tested for teratogenicity in pregnant rats.
The retinoic acid glucuronide dissolved in vegetable oil. Equivalent amount of all-trans retinoic acid was also dissolved in the vegetable oil. Groups of pregnant rats were dosed orally with either retinoid glucuronide or retinoic acid on day 8.5 of gestation. […] The rats were killed on day 19.5 of a 21 day gestational period, and the fetuses were examined for viability, growth, and developmental abnormalities.
Rats that became pregnant during the same night were selected for the study. The rats were divided into 3 groups. Rats in Group 1 received orally 55 mg of the all-trans retinoic acid glucuronide (equivalent to 35 mg of retinoic acid) or a very large dose of 108 mg of the glucuronide in peanut oil. Rats in Group 2 received orally 35 mg of all-trans retinoic acid in peanut oil. Rats in Group 3 received no retinoid and served as control. The rats were then allowed to grow normally and on day 19, they were killed and fetuses were examined.

Series [3] can be described thus: Solubility in water. It is filed as physicochemical. The following applies: all-trans retinoyl β-glucuronide.
Series [4] deals with β-glucuronidase. The series can be described thus: Hydrolysis by β-glucuronidase (from E. coli). It is filed as biochemical. The conditions noted are these: phosphate buffer pH 6.8, 0.5-2 hrs. Here is the method: An analytically pure sample of retinoyl β-glucuronide was obtained by HPLC of the above preparation on a Whatman ODS-3 column (M9, 50 cm) using methanol/water (7:3) containing 10 mM ammonium acetate at a flow rate of 3 ml/min. Retinoyl β-glucuronide (tR =49.7 min) separated from traces of isomers or anomers (tR =46.4 min). The eluate carrying retinoyl β-glucuronide was diluted with water and made just acidic with 0.1N HCl. The product was extracted with ethyl acetate. The extract was washed with water, dried over anhydrous sodium sulfate, and then evaporated to dryness. The residue was dissolved in a small volume of diethyl ether and all-trans retinoyl β-glucuronide was precipitated with hexane. The solid was separated and dried. All-trans retinoyl β-glucuronide:m.p. 142°-143° C. (darkens at 125° C.); UVmax 360 nm (E1cm =1065) in methanol and 365 nm in water. The ^1 H-NMR, IR and Mass spectra and C, H analysis results were consistent with the structure.

The conditions of series [5]: cited from earlier work.
Series [6] relates to human fetus. The conditions noted are these: oral, 0.5 to 2 mg/kg body weight per 24 hours; cited from earlier work.

On to `CC1=C(/C=C/C(C)=C/C=C/C(C)=C/COC2O[C@H](C(=O)O)[C@@H](O)[C@H](O)[C@H]2O)C(C)(C)CCC1` (some centres unmarked) [retinol glucuronide, reference compound], for which the “activity in the HL-60 systems assay” value in series [1] was “activity similar to retinoic acid and retinol”.
As to `CC1=C(/C=C/C(C)=C/C=C/C(C)=C/C(=O)O[C@@H]2O[C@H](C(=O)O)[C@@H](O)[C@H](O)[C@H]2O)C(C)(C)CCC1` [Retinoyl β-glucuronide, All-trans retinoyl β-glucuronide], in series [2] (rat, in vivo, po), the condition of pups entry is “All the pups were normal and live”; the “teratogenicity, observation in words” value is recorded as “did not show any sign of teratogenicity”. Further, in series [3], the solubility in water result is on record as “soluble in water”. Also, the “product of incubation with β-glucuronidase” value in series [4] was “generated retinoic acid”. Further, the “activity in the HL-60 systems assay” value in series [1] was “activity similar to retinoic acid and retinol”. Further, the “cytotoxicity to HL-60 cells, less than all-trans retinoic acid” value in series [1] (in vitro, vs all-trans retinoic acid, Gallup et al. and Zile et al.) is on record as 50%.
As to `CC1=C(/C=C/C(C)=C/C=C/C(C)=C/CO)C(C)(C)CCC1` [retinol], the water solubility entry in series [5] was “water-insoluble”.
For `CC1=C(/C=C/C(C)=C/C=C/C(C)=C/C(=O)O)C(C)(C)CCC1` [Retinoic acid, all-trans retinoic acid, reference compound], in series [2] (same large doses of retinoic acid, oral), the “outcome of pregnancy / embryos” value was “did not carry the pregnancy to term--all the embryos died and were being resorbed”. Further, the water solubility entry in series [5] is on record as “not water-soluble”.
With `CC1=C(/C=C/C(C)=C/C=C/C(C)=C\C(=O)O)C(C)(C)CCC1` [isotretinoin, 13-cis form of retinoic acid], in series [6], the “teratogenicity at typical clinical doses” value is on record as “highly teratogenic”.
